Assays:
16D^CRPC cells = test: Cell proliferation, 16D cells that do not express BRN2 (crystal violet); type: cell-based; details: result in words
Protocol: Step 3: Cell Proliferation
Plate 42DE^NZR (˜7000 cells per well) and 16D^CRPC (˜5000 cells per well) cells in 96 well plate with a volume of 100 μL per well. • 2. Next day 1 mL aliquots of media are combined with 3× the desired concentration of compounds. The aliquots are vortexed and 50 μL of each 3× concentration is added to the 100 μL of media in each well to give the ix desired concentration.
The following are the desired concentrations:
0, 10 nM, 100 nM, 500 nM, 1 μM, 2.5 μM, 5 μM, 10 μM, 15 μM, 20 μM, 30 μM. • 3. Approximately 72 hours later, 17 μL of 10% Glutaraldehyde is added to each well and plates are placed on a shaker for 20-30 minutes. • 4. Media is washed off the fixed cells by slow submersion in a container of water. Then the water is removed by tapping the plate upside down. • 5. 75 μL of Crystal Violet™ solution is added into the 96 well plates and placed on a shaker for ˜30 minutes. • 6. Media is washed off the fixed cells by repeated slow submersion in a container of water and the plates are allowed to dry over-night. • 7. Next day, 75 μL of Sorensen Solution is accurately pipetted into each well. The plates placed on a shaker for ˜30 minutes. • 8. Absorbance is measured in the plate at 590 nm. Compounds that Show Specificity Towards 42DE^NZR Cells Vs 16D^CRPC Cells Progress to Step 4.
In TABLES 1 and 2, in columns Met Stab % and T½, refers to compound's stability in MLM. There is a distinction in TABLES 1 and 2 difference between “Active” and “Specific” or “Specificity”. Some of the compounds were first tested to quantify inhibition of BRN2 transcriptional activity in a luciferase assay to determine BRN2 inhibition at 10 μM and 30 μM concentrations. […] Generally, compounds having low inhibitory activity were compounds with less than about ˜30% or activation at either concentration (i.e. 10 μM or 30 μM). Furthermore, some compounds that lacked specificity could also show off-target effects.

[1] = Metabolic stability in liver microsomes (MLM); type: in vitro ADME, mice; details: 0.25 mg/mL protein
Summary of the method: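 Mouse liver microsomes (0.25 mg/mL protein) in 50 mM potassium phosphate pH 7.4 at 37 °C with 1 µM compound, 1 mM NADPH, 0.1% DMSO; sampled 0–60 min in duplicate. LC-MS/MS parent depletion gives half-life; CL'int in mL/min/kg scaled with 45 mg protein/g liver, 90 g liver.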

O=C1/C(=N\Nc2nc3ccccc3s2)Cc2ccccc21 [7-62, (Z)-2-(2-(benzo[d]thiazol-2-yl)hydrazineylidene)-2,3-dihydro-1H-inden-1-one]
effect on 16D (16D^CRPC cells): no effect on 16D
half-life at 1 μM ([1]; mouse, liver microsomes, pH 7.4, 1 μM compound, read-out: T1/2 in mins (MLM)): 40 min
Met Stab % (60 mins) MLM ([1]; percent remaining at 60 min, 1 μM compound, 1 mM NADPH): 31%
